Assays:
[1] = test system: MIA-PaCa2 cells; test: MTT cytotoxicity / cell viability assay, MIA-PaCa2; format: cell-based; settings: Homo sapiens, MIA PaCa-2, 72 hours post-treatment, read-out: IC50 values in specified pancreatic cancer cell line
Protocol: (§1) Four human PDAC cell lines were used in this study, including MIA-PaCa2, Panc-1, AsPC1, and BxPC3, in which the MIA-PaCa2, Panc-1 and AsPC1 comprises a KRAS mutation (i.e., KRAS mutant cell lines), and the BxPC3 has a wild-type KRAS gene (see, for example, Wen-Hsuan Chang et al., Cancer Lett. (2021), 517: 66-77; and Radu Pirlog et al., J Clin Invest. (2022), 132(14): e161454). The MIA-PaCa2 cells were cultured in RPMI1640 medium containing 10% fetal bovine serum (FBS) and 1% penicillin/streptomycin. The AsPC1, BxPC3 and Panc-1 cells were cultured in DMEM high glucose medium supplemented with 10% FBS and 1% penicillin/streptomycin.
(§2) Cytotoxicity and cell proliferation were determined by using 3-(4,5-dimethylthiazol-2-yl)-2,5-diphenyltetrazolium bromide (MTT) assay. Specifically, the MIA-PaCa2 and Panc-1 were seeded in a 96-well plate (5×10^3 cells/well). […] The resulting formazan crystals were dissolved using dimethyl sulfoxide (DMSO), and the absorbance was measured at 495 nm using a microplate reader. The cell proliferation ability was quantified as the optical density (OD) value. The cytotoxicity induced by the treatments was determined by calculating the percentage of viable cells (dividing the optical density of the drug-treated samples by that of the control samples). […]

[2] = test system: Panc-1 cells; test: MTT cytotoxicity / cell viability assay, Panc-1; format: cell-based; settings: Homo sapiens, 72 hours post-treatment, read-out: IC50 values in specified pancreatic cancer cell line
Protocol: as §1, §2

[3] = test system: AsPC1 cells; test: MTT cytotoxicity / cell viability assay, AsPC1; format: cell-based; settings: Homo sapiens, 72 hours post-treatment, read-out: IC50 values in specified pancreatic cancer cell line
Protocol: as §1, §2

[4] = test system: BxPC3 cells; test: MTT cytotoxicity / cell viability assay, BxPC3; format: cell-based; settings: Homo sapiens, BXPC-3, 72 hours post-treatment, read-out: IC50 values in specified pancreatic cancer cell line
Protocol: as §1, §2

[5] = test system: MIA-PaCa2 subcutaneous tumor; test: Subcutaneous tumor model; format: in vivo, NOD-SCID male mice; settings: oral, five times per week for three weeks; mivebresib 1 mg/Kg, rucaparib 10 mg/Kg; FIG. 2
Protocol: The MIA-PaCa2 cells (2×10^6) were suspended in 10 μL phosphate buffered saline (PBS), and then subcutaneously injected to NOD-SCID male mice (6-8 weeks old). After 14 days (the tumor size was about 100-150 mm^3), PBS, mivebresib (1 mg/Kg), rucaparib (10 mg/Kg), or the combination of mivebresib and rucaparib (1 mg/Kg of mivebresib plus 10 mg/Kg of rucaparib) was orally administered to the mice five times per week, for three consecutive weeks. The tumor size was measured using caliper every 2-3 days, until the mice met humane endpoint criteria and were euthanized.
Two tumor models, including subcutaneous and orthotropic tumor models, were used in the example to evaluate the anti-tumor effect of mivebresib and rucaparib on pancreatic cancer. As described in “Materials and Methods”, the tumor-bearing mice were respectively administered with PBS, mivebresib, rucaparib, and the combination of mivebresib and rucaparib. The tumor sizes were monitored by caliper and IVIS® imaging system. The results were respectively depicted in FIG. 2 (subcutaneous tumor model) and FIG. 3 (orthotropic tumor model).

[6] = test system: pancreatic cancer; test: Overall survival of pancreatic cancer patients with neoadjuvant chemotherapy; format: in vivo, human; settings: patients with cisplatin treatment (without: 18.96 months); data not shown
Protocol: Whether neoadjuvant chemotherapy (a chemotherapy that a cancer patient receives before the primary course of surgical treatment) would affect the overall survival of cancer patients was determined in the example. According to the results, the overall survivals of patient with or without cisplatin treatment were respectively 26.36 and 18.96 months (data not shown). Then, the patients receiving the platinum-based therapy were further divided into responder group and non-responder group.

SMILES	IC50 [1] [nM]	IC50 [2] [nM]	IC50 [3] [nM]	IC50 [4] [nM]	tumor growth (tumor size by caliper) [5]	overall survival [6] [months]
CCS(=O)(=O)Nc1ccc(Oc2ccc(F)cc2F)c(-c2cn(C)c(=O)c3[nH]ccc23)c1 [Mivebresib, mivebresib]	260	1410	191	273	inhibited tumor growth	–
CNCc1ccc(-c2[nH]c3cc(F)cc4c3c2CCNC4=O)cc1 [Rucaparib, rucaparib]	2440	1980	2360	2510	inhibited tumor growth	–
N.N.[Cl][Pt][Cl] [cisplatin]	–	–	–	–	–	26.36
